Experimental findings from patent US6017958A, “Method of treating malignant tumors with thyroxine analogues having no significant hormonal activity” (Octamer, Inc., priority 1997, dated 2000) are described below.

Entries after “also recorded” stand apart in the source; their conditions may differ. Where two headings read alike, the source gives them in different places.

Data set [1] has as its system T47D (ductal mammary cancer). Nature of the data set: Cytocidal action/growth inhibition, T47D. It counts as cell-based. The note with it: Homo sapiens, 72 h. As to the method: Seven human cancer cell lines were obtained from the American Tissue Culture Collection (Rockville, Md.) and maintained in the recommended growth media. Cells were seeded into wells (2 cm^2) at a density of 2×10^4 cells/cm^2. Various concentrations of Compounds 1-13 were added to the media at the time of seeding.
The cultures were incubated for 72 hours at 37° C. (5% CO2 atmosphere). Following incubation, cells were detached with trypsin and counted in a hemocytometer.
I100 designates the concentration at which no viable cells remained; I50 the concentration at which 50% viable cells remained, as compared to a control.
E-ras 20 cells were cultured as reported, Bauer et al., 1996, "Modification of growth related enzymatic pathways and apparent loss of tumorigenicity of a ras-transformed bovine endothelial cell line by treatment with 5-iodo-6-amino-1,2-benzopyrone (INH2 BP)" Intl. J. Oncol. 8:239-252; HT-144 (melanoma), DU-145 (prostatic cancer), HeLa (cervical cancer), HL 60 (promyelocytic leukemia), MDA-MB-231 (mammary cancer), SK-Br-3 (mammary cancer), T47D (ductal mammary cancer), A559 (lung cancer) were obtained from American Type Culture Collection (Rockville, Md.) and cultured in prescribed media. The effect of DIME was tested in cultures with a starting cell density of 2×10^4 cells per cm^2 and comparison of the effect of DIME on cell growth (intact cells identified by Trypan blue exclusion) was assayed by direct cell counting after trypsinization in a hemocytometer 72 hours after drug addition.
For DIME-exposure experiments cells were seeded into 2 cm^2 wells at a density of 2×10^4 cells/cm^2. DIME at various concentrations was added to the medium at the time of seeding. The cell cultures were then incubated for 3 days (37° C. in 5% at CO2 atmosphere).

A short description of another data set: In vivo toxicity. Details: species or system mouse. On the procedure: Ten nude mice were administered a daily oral dose of ^14 C-labeled DIME (Compound 1) (1.0 g/kg, 0.1 mL in corn oil) for a period of 12-15 days.
Another data set deals with MDA-MB-231 xenografts. As to the kind of experiment: MDA-MB-231 xenograft growth in nude mice. The format is in vivo, human tumor in nude mice. The note with it: 250 mg/kg gavage, 5 days/week; control 979.0 ± 154; p = 0.01; in mm³ (unit assumed). On the procedure:
MDA-MB-231 (human mammary cancer) cells were obtained from American Type Culture Collection (Rockville, Md.) and maintained in the recommended growth media. Twenty nude mice were each inoculated subcutaneously with MDA-MB-231 cells (10^6 cells/100 μL). To one group of ten mice, DIME was administered by gavage (250 mg/kg, 10 mL/kg in corn oil) once per day, 5 days per week, for a total of 32 days. The other (control) group of ten mice was given administered vehicle only according to the same dosing schedule. Tumors were measured twice weekly using a Vernier caliper, and the mean tumor volume was determined at each time point. Comparisons between groups were made using an unpaired, two-tailed t-test and the results were analyzed using analysis of variance.
Tumorigenicity of E-ras 20 Cells in athymic nude mice was assayed as described previously. Bauer et al., 1996, "Modification of growth related enzymatic pathways and apparent loss of tumorigenicity of a ras-transformed bovine endothelial cell line by treatment with 5-iodo-6-amino-1,2-benzopyrone (INH2 BP)" Intl. J. Oncol. 8:239-252. The in vivo antitumorigenic action of DIME was assayed on athymic mice inoculated with 10^6 MDA-MB-231 cells, as in the tumorgenicity assay. […]
(In xenograft studies the graft and the host belong to different species.)

Another data set relates to MDA-MB-231 cells. As to the kind of experiment: Colony formation / cell killing. It counts as cell-based, human. As to the method:
Assays for Quantitation of colony formation were performed as reported, Vidair, et al., 1986 "Evaluation of a Role for Intracellular Na^+, K^+, Ca2^+ and Mg^2+ in hyperthermic cell killing" Radiation Res. 105:187-200.

Data set [2] deals with A-549 (lung cancer) cell extracts, esterase. Nature of the data set: Esterase cleavage of DIME by A-549 cell extracts (TLC). The format is in vitro ADME, human. On the procedure:
In the experiment shown in lines 1 and 2 the esterase activity of the extract occurs during 4 hours incubation with 1 μM DIME. […] Lines 3 and 4 depict the same experiments as in lines 1 and 2, except the cell extracts were prepared from intact cells preincubated for 24 hours with 1 μM DIME, then washed and extracted.
(a) mouse tissue homogenate (brain, kidney, liver lung) consisting of 0.2 g of tissue in 1.0 ml. of homogenization buffer (50 mM Tris (pH 7.4), 400 mM NaCl, 10 mM MgCl2, 1 mM EDTA, 0.5% NP-40, 0.5 mM PMSF) each were combined with 1.0 ml of MES buffer (100 mM ph 6.5) containing 20 μM [^14 C]-DIME (10.55 mCi/mmol), and the mixtures were incubated at 37° C. for 4 hours. Then to each tube was added sequentially ethyl acetate (1.5 ml), ammonium sulfate (900 mg) and 60% perchloric acid (160 μl), with vortexing after each addition. After standing for 10 minutes, phase separation was enhanced by benchtop centrifugation. The upper (ethyl acetate) layer was drawn off, and the lower aqueous and interphase material was extracted with a second portion of ethyl acetate (1.5 ml). The ethyl acetate extracts (combined) contained more than 90% of the total cpm present in the original incubate (ca. 4×10^5 cpm). […]

A further data set relates to noncancer cells. Nature of the data set: Replication of noncancer cells in culture. It counts as cell-based. The note with it: cells growing in cultures; not shown.

Turning to `COC(=O)c1cc(I)c(Oc2ccc(OC)cc2)c(I)c1` [Compound 1, Methyl 3,5-diiodo-4-(4'-methoxyphenoxy)benzoate], the IC50 in data set [1] (Table 4, read-out: I50) turned out to be 700 nM; in data set [1] (day 3, Table 11, read-out: I50 (day 3)) it was 700 nM. The IC100 in data set [1] (Table 4, read-out: I100 (no viable cells remained)) was 3.5 µM. Further, in “In vivo toxicity” (1.0 g/kg daily oral, 12-15 days, nude mice, listed as DIME), the ill effects entry is on record as “No ill effects were observed; also recorded: produced no ill effects”. The “macroscopically observed toxicity in vivo” value in “In vivo toxicity” (in vivo) was “no macroscopically observed toxicity in vivo”. Also, the “Tumor Volume Day 28 ± SEM” value with MDA-MB-231 xenografts worked out at 430 ± 85.6. Besides, the colony forming ability entry in the data set on MDA-MB-231 cells (1-2 μM, 10 days) is given as “profoundly diminished”. Moreover, in the data set on MDA-MB-231 cells (DIME removed prior to end of 8 hours incubation), the “cell killing after drug removal” value is “cell killing was prevented and drug-induced morphologic changes were completely reversed”. Moreover, in data set [2] (A-549 cells), the “ester bond cleavage by A-549 cells” value is given as “readily cleave the ester bond”. Further, in data set [2] (intact cells preincubated 24 hours with 1 μM DIME), the esterase induction entry was “esterase is not induced by DIME”. Further, in the data set on noncancer cells, the “inhibition of replication of noncancer cells” value is given as “inhibited to varying degrees”.
